Assay: Pharmacokinetics in mice (exposure, AUC)
Format: in vivo
Conditions: male, CD1, plasma, mouse, po
Description: This study was performed with 42 naïve male CD1 mice (18-20 g, 4-5 weeks old). Mice are obtained from Janvier, Le Genest St Isle, France.
A controlled environment was maintained in the room with optimal conditions of approximately 15 air changes per hour, a temperature of 22±2 C, a relative humidity of 30-70% and a 12 hour light/12 hour dark cycle (nightlight during the night period).
Pelleted diet for rodents (UAR A04C-10) was used and was provided ad libitum. Before p.o. dosing, the animals are deprived of food for at least 12 hours before compound administration and 4 hours after administration. All animals had free access to tap water.
[…] The i.v. bolus administration is given with a dose volume of 5 mL/kg and the oral administration is given with a dose volume of 10 mL/kg. Actual dose volumes are based on the mean of 10 body weights.
The vehicle used to formulate compounds for oral administration is methylcellulose in water (0.5% in water)
From all animals approximately 500 μL blood samples are collected by intra-cardiac puncture under gaseous anesthesia and placed into tubes containing Li-heparin as anticoagulant. Blood samples are collected at various time points (i.v.: 0.05, 0.25, 0.5, 1, 3, 5 and 8 hours after dosing; p.o.: 0.25, 0.5, 1, 3, 5, 8 and 24 hours after dosing). Each mouse is sampled once and euthanized.
Blood is kept on ice. Within 1 hour after sampling, blood is centrifuged at 5,000 rpm for 10 min at 4° C. Immediately after centrifugation, the resulting plasma samples are collected into polypropylene tubes and are kept frozen at −20° C. pending bioanalysis.
Plasma samples are assayed by LC-MS/MS. Plasma proteins are precipitated with an excess of methanol containing the internal standard and the corresponding supernatant is injected on a C18 column. Analytes are eluted out the HPLC system by increasing the percentage of the organic mobile phase. An API4000 mass spectrometer (AB Sciex™) is used for the detection and quantification.
Pharmacokinetic parameters are calculated by non-compartmental analysis using WinNonlin® software (Pharsight, version 5.2).

Row | AUC (5 mg/kg) [ng·h/mL] | AUC (30 mg/kg) [ng·h/mL] | Structure (SMILES)
1 | 851 | 31600 | Cc1ccc(NC(=O)c2cccc(C(F)(F)F)c2)cc1-c1ccc2c([C@H](C)O)n[nH]c2n1 [Compound 55, N-{3-[3-((S)-1-Hydroxy-ethyl)-1H-pyrazolo[3,4-b]pyridin-6-yl]-4-methyl-phenyl}-3-trifluoromethyl-benzamide]
2 |  | 1130 | Cc1ccc(NC(=O)c2cccc(C(F)(F)F)c2)cc1-c1cc(C)c2c(N)n[nH]c2n1 [Compound A, N-(3-(3-amino-4-methyl-1H-pyrazolo[3,4-b]pyridin-6-yl)-4-methylphenyl)-3-(trifluoromethyl)benzamide]

From patent publication US9062051B2, “Compounds and pharmaceutical compositions thereof for the treatment of proliferative disorders” (GALAPAGOS NV, priority 2014, dated 2015)
